# Target: T1, full length human recombinant glucocorticoid receptor (Homo sapiens, UniProt P04150)
# T1 construct: partially purified full length human recombinant glucocorticoid receptor; purchased Panvera/Invitrogen PV4302
# T1 sequence (P04150 1-777): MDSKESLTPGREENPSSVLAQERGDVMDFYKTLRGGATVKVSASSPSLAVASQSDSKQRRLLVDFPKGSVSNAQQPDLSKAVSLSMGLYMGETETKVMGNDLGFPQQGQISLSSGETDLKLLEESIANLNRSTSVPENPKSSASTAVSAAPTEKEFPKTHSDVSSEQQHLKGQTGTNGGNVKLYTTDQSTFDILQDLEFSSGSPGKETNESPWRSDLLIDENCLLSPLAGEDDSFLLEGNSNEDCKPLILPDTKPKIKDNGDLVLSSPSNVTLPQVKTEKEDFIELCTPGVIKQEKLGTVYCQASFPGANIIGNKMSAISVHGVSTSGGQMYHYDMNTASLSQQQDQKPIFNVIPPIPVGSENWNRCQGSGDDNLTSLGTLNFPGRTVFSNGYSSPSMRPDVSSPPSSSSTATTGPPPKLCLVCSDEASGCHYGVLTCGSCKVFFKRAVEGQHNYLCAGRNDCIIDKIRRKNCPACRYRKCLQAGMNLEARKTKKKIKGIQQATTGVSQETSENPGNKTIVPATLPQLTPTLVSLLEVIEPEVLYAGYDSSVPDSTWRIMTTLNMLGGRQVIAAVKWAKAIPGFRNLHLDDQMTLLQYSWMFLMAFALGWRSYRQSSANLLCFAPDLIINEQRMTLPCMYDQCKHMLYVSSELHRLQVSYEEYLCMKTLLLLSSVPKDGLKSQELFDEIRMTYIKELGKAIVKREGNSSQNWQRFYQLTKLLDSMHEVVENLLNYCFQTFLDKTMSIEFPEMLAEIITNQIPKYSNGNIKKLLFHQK
# Experiment: Glucocorticoid Receptor Binding Assay (fluorescence polarization competitor assay, Fluormone GS Far Red tracer)
# Protocol: Glucocorticoid Receptor Binding Assay
# The ability of the substances to bind to the glucocorticoid receptor was determined with the help of a commercial Glucocorticoid Receptor Competitor Assay far red kit provided by Panvera/Invitrogen (PV4302). This kit is used as provided by the supplier. It contains some partially purified full length human recombinant glucocorticoid receptor, a coactivator related GR stabilizing peptide, a tight-binding fluorescent GR ligand Fluormone™ GS Far Red as labeled tracer and a screening buffer. All reagents are prepared and the assay is run according to the recommendations of the kit manufacturer.
# Briefly, the GR stabilizing peptide and the human recombinant glucocorticoid receptor are both diluted with the screening buffer (pH 7.4) and are gently mixed (no vortexing) just before the assay and kept on ice until use. The fluorescent-labeled ligand is also diluted with the screening buffer just before the assay and kept on ice until use. The substances to test are pre-diluted in pure DMSO then some water is added to get an intermediate 4.2% DMSO stock solution. Ten microliter of the intermediate stock solution is gently mixed with 5 μl of diluted fluorescent-labeled ligand and 5 μl of diluted human recombinant glucocorticoid receptor in a 384-well plate (low volume, ultraclear, glass plate from Greiner ref 788896). The plate is centrifuged, sealed and incubated for 3 hours at 22° C. in the dark. The polarized fluorescence is measured with a Zeiss-HTS reader or any equivalent equipment (610-660 nm).
# All compounds were tested to determine IC50 in a serial dilution experiment. The concentration at which 50% inhibition of the fluorescent GR ligand Fluormone™ GS Far Red is obtained (the IC50) is determined after fitting with a sigmoidal dose-response model of a plot of the logarithm of the concentration versus percent inhibition measured for the different concentrations. Ki's were calculated from IC50 based on Cheng-Prusoff equation (Cheng, Y, Prusoff, W H (1973) Biochem Pharmacol 22, 3099-3108): Ki=IC50/[1+D/Kd] wherein D is the concentration of the fluorescent ligand and Kd is the binding constant for the fluorescent ligand binding to the receptor under the conditions used in the competition experiment.
row,SMILES,Ki
1,"CCOC(=O)c1ccc(COc2ccc([C@@H](C)[C@@](O)(c3cnc(C)cn3)C(F)(F)F)c(Cl)c2)cc1 (racemic) [Example 1, 4-{3-Chloro-4-[3,3,3-trifluoro-2-hydroxy-1-methyl-2-(5-methyl-pyrazin-2-yl)-propyl]-phenoxymethyl}-benzoic acid ethyl ester]",76.6 nM
2,"COC(=O)Cc1ccc(COc2ccc([C@@H](C)[C@@](O)(c3cnc(C)cn3)C(F)(F)F)c(Cl)c2)cc1 (racemic) [Example 11, (4-{3-Chloro-4-[3,3,3-trifluoro-2-hydroxy-1-methyl-2-(5-methyl-pyrazin-2-yl)-propyl]-phenoxymethyl}-phenyl)-acetic acid methyl ester]",84 nM
3,"COC(=O)c1ccc(COc2ccc([C@@H](C)[C@@](O)(c3cnc(C)cn3)C(F)(F)F)c(Cl)c2)c(OC)c1 (racemic) [Example 15, 4-{3-Chloro-4-[3,3,3-trifluoro-2-hydroxy-1-methyl-2-(5-methyl-pyrazin-2-yl)-propyl]-phenoxymethyl}-3-methoxy-benzoic acid methyl ester]",72.3 nM
4,"Cc1cc([C@@](O)([C@@H](C)c2ccc(Oc3ccc(C(=O)O)c(F)c3)cc2Cl)C(F)(F)F)cn(C)c1=O (racemic) [Example 204, 4-{3-Chloro-4-[2-(1,5-dimethyl-6-oxo-1,6-dihydro-pyridin-3-yl)-3,3,3-trifluoro-2-hydroxy-1-methyl-propyl]-phenoxy}-2-fluoro-benzoic acid]",0.4 nM
5,"Cc1cc([C@@](O)([C@@H](C)c2ccc(Oc3ccc(C(=O)O)cc3Cl)cc2Cl)C(F)(F)F)cn(C)c1=O (racemic) [Example 215, 3-Chloro-4-{3-chloro-4-[2-(1,5-dimethyl-6-oxo-1,6-dihydro-pyridin-3-yl)-3,3,3-trifluoro-2-hydroxy-1-methyl-propyl]-phenoxy}-benzoic acid]",0.2 nM
6,"Cc1cc([C@@](O)([C@@H](C)c2ccc(Oc3ccc(C(=O)O)cn3)cc2Cl)C(F)(F)F)cn(C)c1=O (racemic) [Example 218, 6-{3-Chloro-4-[2-(1,5-dimethyl-6-oxo-1,6-dihydro-pyridin-3-yl)-3,3,3-trifluoro-2-hydroxy-1-methyl-propyl]-phenoxy}-nicotinic acid]",1.4 nM
7,"COC(=O)c1ccc(COc2ccc([C@@H](C)[C@@](O)(c3ccnc(Cl)c3)C(F)(F)F)c(Cl)c2)c(OC)c1 (relative stereo) [Example 21, 4-{3-Chloro-4-[2-(2-chloro-pyridin-4-yl)-3,3,3-trifluoro-2-hydroxy-1-methyl-propyl]-phenoxymethyl}-3-methoxy-benzoic acid methyl ester]",7.5 nM
8,"COC(=O)Cc1ccc(COc2ccc([C@@H](C)[C@@](O)(c3ccnc(Cl)c3)C(F)(F)F)c(Cl)c2)cc1 (relative stereo) [Example 23, (4-{3-Chloro-4-[2-(2-chloro-pyridin-4-yl)-3,3,3-trifluoro-2-hydroxy-1-methyl-propyl]-phenoxymethyl}-phenyl)-acetic acid methyl ester]",13.3 nM
9,"COC(=O)c1ccc(N(C)C(=O)c2ccc([C@@H](C)[C@@](O)(c3ccnc(Cl)c3)C(F)(F)F)c(Cl)c2)cc1 (relative stereo) [Example 28, 4-({3-Chloro-4-[-2-(2-chloro-pyridin-4-yl)-3,3,3-trifluoro-2-hydroxy-1-methyl-propyl]-benzoyl}-methyl-amino)-benzoic acid methyl ester]",114 nM
10,"COC(=O)c1ccc(CNC(=O)c2ccc([C@@H](C)[C@@](O)(c3ccnc(Cl)c3)C(F)(F)F)c(Cl)c2)cc1 (relative stereo) [Example 36, 4-({3-Chloro-4-[2-(2-chloro-pyridin-4-yl)-3,3,3-trifluoro-2-hydroxy-1-methyl-propyl]-benzoylamino}-methyl)-benzoic acid methyl ester]",117 nM
11,"COC(=O)Cc1ccc(NC(=O)c2ccc([C@@H](C)[C@@](O)(c3ccnc(Cl)c3)C(F)(F)F)c(Cl)c2)cc1 (relative stereo) [Example 38, (4-{3-Chloro-4-[2-(2-chloro-pyridin-4-yl)-3,3,3-trifluoro-2-hydroxy-1-methyl-propyl]-benzoylamino}-phenyl)-acetic acid methyl ester]",155 nM
12,"COC(=O)c1cccc(NC(=O)c2ccc([C@@H](C)[C@@](O)(c3ccnc(Cl)c3)C(F)(F)F)c(Cl)c2)c1 (relative stereo) [Example 40, 3-{3-Chloro-4-[2-(2-chloro-pyridin-4-yl)-3,3,3-trifluoro-2-hydroxy-1-methyl-propyl]-benzoylamino}-benzoic acid methyl ester]",121 nM
13,"C[C@H](c1ccc(C(=O)Nc2cccc(C(=O)O)n2)cc1Cl)[C@@](O)(c1ccnc(Cl)c1)C(F)(F)F (relative stereo) [Example 44, 6-{3-Chloro-4-[2-(2-chloro-pyridin-4-yl)-3,3,3-trifluoro-2-hydroxy-1-methyl-propyl]-benzoylamino}-pyridine-2-carboxylic acid]",228 nM
14,"CCOC(=O)c1noc(-c2ccc([C@@H](C)[C@@](O)(c3ccnc(Cl)c3)C(F)(F)F)c(Cl)c2)n1 (relative stereo) [Example 47, 5-{3-Chloro-4-[2-(2-chloro-pyridin-4-yl)-3,3,3-trifluoro-2-hydroxy-1-methyl-propyl]-phenyl}-[1,2,4]oxadiazole-3-carboxylic acid ethyl ester]",47.1 nM
15,"C[C@H](c1ccc(-c2ccc(C(=O)O)cc2)cc1Cl)[C@@](O)(c1ccnc(Cl)c1)C(F)(F)F (relative stereo) [Example 50, 3′-Chloro-4′-[2-(2-chloro-pyridin-4-yl)-3,3,3-trifluoro-2-hydroxy-1-methyl-propyl]-biphenyl-4-carboxylic acid]",48.5 nM
16,"COC(=O)c1ccc(-c2ccc([C@@H](C)[C@@](O)(c3ccnc(Cl)c3)C(F)(F)F)c(Cl)c2)cc1F (relative stereo) [Example 53, 3′-Chloro-4′-[2-(2-chloro-pyridin-4-yl)-3,3,3-trifluoro-2-hydroxy-1-methyl-propyl]-3-fluoro-biphenyl-4-carboxylic acid methyl ester]",14.9 nM
17,"C[C@H](c1ccc(COc2ccc(C(=O)O)cn2)cc1Cl)[C@@](O)(c1ccnc(Cl)c1)C(F)(F)F (relative stereo) [Example 127, 6-{3-Chloro-4-[2-(2-chloro-pyridin-4-yl)-3,3,3-trifluoro-2-hydroxy-1-methyl-propyl]-benzyloxy}-nicotinic acid]",5.5 nM
18,"C[C@H](c1cc(Oc2ccc(C(=O)O)cn2)ccc1Cl)[C@@](O)(c1ccnc(Cl)c1)C(F)(F)F (relative stereo) [Example 133, 6-{4-Chloro-3-[2-(2-chloro-pyridin-4-yl)-3,3,3-trifluoro-2-hydroxy-1-methyl-propyl]-phenoxy}-nicotinic acid]",207 nM
19,"C[C@H](c1cc(Oc2ncc(C(=O)O)cn2)ccc1Cl)[C@@](O)(c1ccnc(Cl)c1)C(F)(F)F (relative stereo) [Example 135, 2-{4-Chloro-3-[2-(2-chloro-pyridin-4-yl)-3,3,3-trifluoro-2-hydroxy-1-methyl-propyl]-phenoxy}-pyrimidine-5-carboxylic acid]",253 nM
20,"C[C@@H](c1ccc(OCc2ccc(CC(=O)O)cc2)cc1Cl)[C@](O)(c1cnc2ccccc2c1)C(F)(F)F (relative stereo) [Example 145, {4-[3-Chloro-4-(3,3,3-trifluoro-2-hydroxy-1-methyl-2-quinolin-3-yl-propyl)-phenoxymethyl]-phenyl}-acetic acid]",1.9 nM

# — patent US8138189B2, “Substituted benzene compounds as modulators of the glucocorticoid receptor” (Hoffman-La Roche Inc., priority 2009, dated 2012)
